Experiments:
[1] = test system: induced pluripotent stem cell-derived hepatocytes (iHep) suspension; assay: In vitro hepatocyte clearance in iHep suspension, targeted LC-MS/MS and GC-MS/MS; assay type: in vitro ADME, human; details: 1 µM equimolar mixture, approximate values
Experimental: (§1) Suspension assays using iHep were performed as previously detailed with slight modification. In brief, pre-differentiated iHep were suspended in iHep maintenance media and adjusted to the cell concentration of 1 × 10^6 cells/mL. A portion of the cell working stock was heated at 95 °C for five minutes to serve as negative control. Five hundred microliters of the chemical stock (20 chemicals, 2 or 10 µM each) were spiked in 500 µL of the cell working stock or heat-inactivated cell control to a final cell density of 5 × 10^5 cells/mL. Fifty microliters were removed subsequently at 0, 60, 120, and 240 min to individual 1.5 mL Eppendorf tubes for further sample extraction detailed below. Each experimental condition was replicated three times.
Sample extraction procedures and chromatographic conditions were previously reported in [34]. In brief, each sample (50 µL) was spiked with 10 µL of 10 µM internal standards, mixed with 100 µL of chilled acetonitrile, and then centrifuged at 10,000× g for 5 min. The supernatant was dried under vacuum using SpeedVac (Savant SPD1010, Beckman Coulter, Brea, CA, USA) and reconstituted with 50 µL of aqueous mobile phase prior to analyses. LC-MS/MS analysis was performed using 1290 Infinity II LC and 6470 triple quadrupole mass spectrometer (both instruments from Agilent Technologies, Santa Clara, CA, USA). Sample extract (10 µL) was chromatographed on a ZORBAX SSHD Eclipse Plus C18 column (3.0 × 50 mm, 1.8 µm, Cat No.: 959757-302; Agilent Technologies) with a guard column (2.1 × 5 mm, 1.8 µm, Cat No.: 821725-901; Agilent Technologies), and ionized using electrospray ionization. Analytical response was acquired in both positive and negative modes.
For positive ion compounds, mobile phases consisted of 0.1% formic acid in water (A) and 0.1% formic acid in methanol (B) using the following gradient: 2% B held for 1 min, B increased to 80% by 3 min, B increased to 95% by 4 min, B decreased to 2% by 5 min and held for 3 min for a total run time of 8 min per sample at a flow rate of 0.4 mL/min. For negative ion compounds, the LC gradient and flow rate were the same as in positive mode, except that mobile phase A was water and mobile phase B was acetonitrile.
Fifty microliters of media sample were spiked with 10 µL of 10 µM internal standards, mixed with 50 µL of methanol and 200 µL of pentane: diethyl ether (1:1 v/v), vortexed briefly, and then centrifuged at 600× g for 5 min. Organic layer supernatants were transferred to a 2 mL amber vial and concentrated under nitrogen prior to GC analysis. Detection of analytes was achieved using a 7890B GC and 7010B triple quadrupole mass spectrometer (both from Agilent Technologies). Samples were injected (1 µL) in splitless mode. Analytes were separated with a VF-5ms GC column (60 m × 250 µm × 0.25 µm, Cat No.: CP8960; Agilent Technologies) and ionized using electron ionization. The column head pressure was set at 21.5 psi (148,237 Pa) with a constant flow rate at 1.2 mL/min using helium gas. Initial column temperature was held at 70 °C for 5 min, increased to 150 °C at 50 °C/min, ramped to 280 °C at 4 °C/min, and then held […]. The total run time was 42.1 min. The injector temperature was set at 250 °C. The ion source and auxiliary transfer line temperatures were 300 °C. Electron multiplier voltage was set at 1884 V. Ultra-high purity nitrogen gas was used as the collision gas for all MS/MS experiments, and collision gas pressure was set at 16.8 psi (115,832 Pa).
In vitro hepatocyte clearance (Clin vitro) of each chemical was estimated by substrate depletion approach assuming first-order kinetics for compound elimination: Clin vitro = kV/N, where k = first-order elimination rate constant, V = incubation volume, and N = number of cells in the incubation. […]

[2] = test system: induced pluripotent stem cell-derived hepatocytes (iHep) suspension; assay: iHep suspension, nontargeted IMS-MS analysis (clearance, metabolite formation, mass balance); assay type: in vitro ADME, human; details: for CLHep average, Nontargeted Analyses (IMS-MS): 1µM mixture; for Level of metabolism through nontargeted methods: % remaining by IMS-MS
Experimental: as §1
All nontargeted analyses were performed using a 6560 IMS-QTOF MS (Agilent Technologies) as detailed previously. All individual standards for pesticide parent compounds (n = 20) and known metabolites (n = 10) were directly injected in triplicate into the electrospray ionization (ESI) source (positive and negative mode) and atmospheric pressure photo-ionization (APPI, negative mode only) to obtain collision cross section (CCS) and mass-to-charge ratio (m/z) values. Blanks were injected between standards to reduce the likelihood of carryover. For sample analyses, ESI was chosen as the optimal source to detect analytes in either positive or negative mode. During IMS-MS analyses, ions were passed through the inlet glass capillary, focused by a high-pressure ion funnel, and accumulated in an ion funnel trap. Next, ions were pulsed into the 78.24 cm-long IMS drift tube filled with nitrogen gas at a pressure of approximately 3.95 torr (527 Pa). Ions exiting the drift tube were refocused by a rear ion funnel prior to quadrupole time-of-flight (QTOF) MS detection. Detailed instrumental settings in ESI mode can be found in Table S1. Prior to instrumental analysis, the IMS-MS was tuned and a mass calibration was performed using Agilent Tune Mix from the manufacturer (Cat No.: G2421-60001, Agilent Technologies).
In vitro hepatocyte clearance (Clin vitro) of each chemical was estimated by substrate depletion approach assuming first-order kinetics for compound elimination: Clin vitro = kV/N, where k = first-order elimination rate constant, V = incubation volume, and N = number of cells in the incubation. Clin vitro was further scaled up to the intrinsic hepatocyte clearance (Clint) according to the equation [38]:Clint = Clin vitro × HPGL × Vl(1) where HPGL = hepatocytes per gram liver (137 × 10^6 cells/g) and Vl = volume of the whole liver (1820 g).

| Structure (SMILES) | Clearance rate in suspension cultures [1] | CLHep average, Nontargeted Analyses (IMS-MS) [2] | Level of metabolism through nontargeted methods ([2]; 1 µM mixture) | Metabolite formation (IMS-MS abundance) ([2]; 1 µM mixture, relative abundance among the five detected metabolites) |
| --- | --- | --- | --- | --- |
| O=[N+]([O-])c1ccc(O)c([N+](=O)[O-])c1 [2,4-Dinitrophenol] | 5 to 14 µL/min/10^6 hepatocytes | 8.886 µL/min/106 hepatocytes | high levels of metabolism |  |
| COP(=S)(OC)SCn1nnc2ccccc2c1=O [Azinphos-methyl] | 5 to 14 µL/min/10^6 hepatocytes | 8.987 µL/min/106 hepatocytes | high levels of metabolism |  |
| CCOP(=S)(OCC)Oc1nc(Cl)c(Cl)cc1Cl [Chlorpyrifos] | 5 to 14 µL/min/10^6 hepatocytes | 7.82 µL/min/106 hepatocytes | high levels of metabolism |  |
| CCOP(=S)(OCC)Oc1cc(C)nc(C(C)C)n1 [Diazinon] | 5 to 14 µL/min/10^6 hepatocytes | 2.285 µL/min/106 hepatocytes |  |  |
| CCOP(=S)(OCC)SCCSCC [Disulfoton] | 5 to 14 µL/min/10^6 hepatocytes | 5.305 µL/min/106 hepatocytes | high levels of metabolism |  |
| CCOP(=S)(OCC)SCSP(=S)(OCC)OCC [Ethion] | 5 to 14 µL/min/10^6 hepatocytes | 5.216 µL/min/106 hepatocytes | high levels of metabolism |  |
| CCOP(O)(=S)OCC [diethylthiophosphate] |  |  |  | formed at the highest amount |

Source: article PMC9609317, “Evaluation of Metabolism of a Defined Pesticide Mixture through Multiple In Vitro Liver Models” (Toxics, 2022)
